According to PMC11993615, “Design, synthesis and optimization of TarO inhibitors as multifunctional antibiotics against Methicillin-resistant Staphylococcus aureus” (npj Antimicrobials and Resistance, 2025):

Columns and labels:
USA400 MW2 [1] = test: MIC determination, broth microdilution; details: Staphylococcus aureus
[2] = Preliminary liver microsomal stability testing; assay type: in vitro ADME, Mouse
Procedure: 6. Supplementary Ta b l e 3: Preliminary liver microsomal stability testing of Ta r O
Compounds Species T1/2 Clint In Vitro MF […]
a MF: metabolic bioavailability.
Microsomes in 0.1 M TRIS buffer pH 7.4 (final concentration 0.33 mg/mL), co- factor MgCl2 (final concentration 5 mM) and tested compound (final concentration 0.1 μM, co-solvent 0.01% DMSO and 0.005% Bovin serum albumin BSA) were incubated at 37°C for 10 min. The reaction was started by the addition of NADPH (final concentration 1 mM). Aliquots were sampled at 0, 5, 15, 30 and 60 min respectively and methanol (cold in wet ice) was added to terminate the reaction.
After centrifugation (4000rpm,5 min), samples were then analyzed by LC- MS/MS.

HS663 [3] = test: Checkerboard MIC assay with imipenem; assay type: cell-based, Staphylococcus aureus; details: for MIC of β-lactam, combined: HS663
Procedure: (§1) In the checkerboard assay, concentrations of antibiotics, oxacillin and imipenem, and TarO inhibitors were simultaneously varied across columns and the rows, respectively. […] The range of each compound chosen for the checkerboard assay was according to their MIC value. […] For each clear well observed on the checkerboard MIC plate, the fractional inhibitory concentration index (FICI) was calculated as follows: FICI = FIC (inhibitor) + FIC (antibiotic) = MIC inhibitor in combination/ MIC inhibitor alone + MIC antibiotic in combination/MIC antibiotic alone. FIC = Fractional Inhibitory Concentration. A FICI value of < 0.5 indicates synergy, a value between 0.5 and 2 indicates additivity or indifference, and a value > 2 indicates antagonism.

USA300 LAC [4] = test: Checkerboard MIC assay with oxacillin; assay type: cell-based, Staphylococcus aureus; details: USA300 LAC/oxacillin
Procedure: as §1

USA400 MW2 [5] = test: Checkerboard MIC assay with oxacillin; assay type: cell-based, Staphylococcus aureus; details: for MIC of β-lactam, combined: USA400 MW2
Procedure: as §1

[6] = Cytotoxicity assay (Sulforhodamine B); assay type: cell-based; details: human
Procedure: The cytotoxicity was detected by Sulforhodamine B method. The human pancreatic cancer cell line Capan-1, human colon cancer cell line HCT-116 and human lung adenocarcinoma cell line NCI-H1373 were purchased from American Type Culture Collection (ATCC; Manassas, VA) and inoculated into 96-well plates in triplicate. The cells were treated with different concentrations of compounds in humidified incubator containing 5% CO2 for 72 h when they reached 70%-80% confluence. Vincristine was added as a positive control. Then, SRB staining agent was added and microplate analyzer was used to read the absorbance at 450 nm wavelength. The cytotoxicity of each compound is expressed as the concentration of the compound that reduces cell viability to 50% (IC50). The optical density (OD) at a wavelength of 450 nm was measured using an SpectraMax 190 Microplate Reader (Molecular Devices; USA). The IC50 value was calculated by the Logit method using Graphpad Prism 9.1.

[7] = test system: S.aureus USA300 LAC biofilm; test: Static biofilm inhibition assay (crystal violet); assay type: cell-based, Staphylococcus aureus; details: USA300 LAC, 24 h static culture
HS663 [8] = test: MIC determination, broth microdilution; details: Staphylococcus aureus
USA300 LAC [9] = test: MIC determination, broth microdilution; details: Staphylococcus aureus
TarO = TarO (Staphylococcus aureus, UniProt Q2G060); assay type: cell-based; details: relative inhibition rate against the wild-type strain, OD600 at 20 h; n.a. = IC50 cannot be calculated within the test range
[10] = HS663/imipenem, at maximum sensitization concentration
[11] = HS663/imipenem, at minimum sensitization concentration
[12] = HS663/imipenem, test range 0.03–32 μg/mL
[13] = at maximum sensitization concentration
[14] = at minimum sensitization concentration
[15] = USA400 MW2/oxacillin, at maximum sensitization concentration
[16] = USA400 MW2/oxacillin, test range 0.03–32 μg/mL

COc1cc(C(F)(F)F)cc([C@H]2OC(=O)N(C(=O)CCn3ccc(=O)c4cccnc43)[C@H]2C)n1 [Compound 18b]
MIC (USA400 MW2 [1]): > 256 µg/mL
Clint In Vitro ([2]; Mouse liver microsomes): 1267 mL/min/gprot
Comments (metabolic stability) ([2]; Mouse liver microsomes): poor
half-life at 0.1 μM ([2]; pH 7.4, Mouse liver microsomes 0.33 mg/mL, 0.1 μM compound): 1.66 min
FICI (HS663 [3]; [10]): <0.08
Sensitization fold (HS663 [3]; [10]): 16
FICI (HS663 [3]; [11]): <0.51
Sensitization fold (HS663 [3]; [11]): 2
Maximum sensitization concentration (HS663 [3]; [12]): 2 µg/mL
Minimum sensitization concentration (HS663 [3]; [12]): 0.12 µg/mL
MIC of β-lactam, combined (HS663 [3]; imipenem with TarO inhibitor at maximum sensitization concentration): 4 µg/mL
MIC of β-lactam, combined (HS663 [3]; imipenem with TarO inhibitor at minimum sensitization concentration): 32 µg/mL
FICI (USA300 LAC [4]; [13]): <0.19
Sensitization fold (USA300 LAC [4]; [13]): 16
FICI (USA300 LAC [4]; [14]): <0.26
Sensitization fold (USA300 LAC [4]; [14]): 4
Minimum sensitization concentration (USA300 LAC [4]; test range 0.03–32 μg/mL): 0.25 µg/mL
FICI (USA400 MW2 [5]; [15]): <0.16
Sensitization fold (USA400 MW2 [5]; [15]): 32
Sensitization fold (USA400 MW2 [5]; USA400 MW2/oxacillin, at minimum sensitization concentration): 2
Maximum sensitization concentration (USA400 MW2 [5]; [16]): 32 µg/mL
Minimum sensitization concentration (USA400 MW2 [5]; [16]): 0.06 µg/mL
MIC of β-lactam, combined (USA400 MW2 [5]; oxacillin with TarO inhibitor at maximum sensitization concentration): 0.5 µg/mL
MIC of β-lactam, combined (USA400 MW2 [5]; oxacillin with TarO inhibitor at minimum sensitization concentration): 8 µg/mL
IC50 at 72 h ([6]; Capan-1 cells (human pancreatic cancer cell line), Capan-1, 72 h): > 20 µM
IC50 at 72 h ([6]; HCT-116 cells (human colon cancer cell line), HCT-116, 72 h): > 20 µM
IC50 at 72 h ([6]; NCI-H1373 cells (human lung adenocarcinoma cell line), NCI-H1373, 72 h): > 20 µM
concentration (as low as) significantly reducing biofilm formation [7]: 8 µg/mL
MIC (HS663 [8]): > 256 µg/mL
MIC (USA300 LAC [9]): > 256 µg/mL
IC50 (TarO): 12.3 µM
